Patent publication US6632797B2, “Method of treating angiogenesis” (priority 1996, dated 2003)

What was measured:
[1] = tested on: Nerve growth factors (NGFA from Vipera lebetina Venom and NGFB from Mouse Submaxillary glands); assay: Interaction between NGF and radioactive IP3, co-elution on Sephadex G-25 / Heparin-Sepharose columns; type: binding; conditions: co-elution from Sephadex G-25, 50 mM Hepes pH 7.4
Method: (§1) The mixture was incubated for 1 hour at 4° C.
This type of column fractionate substances according to molecular weight.
The incubate was loaded on the column and was eluted with 50 mM Hepes in fractions of 0.4 ml each.
(§2) To further determine the interaction, the fractions with radioactivity and UV-absorbance were loaded on a Heparin-Sepharose CL-6B column (Pharmacia Biotech, Sweden) (volume 25 ml, height 20 cm). […] Elution was performed with 50 mM Hepes, pH 7.4 and each fraction of 1 ml was collected for determination of radioactivity and UV absorbance. A peak with radioactivity but without UV absorption was loaded on a similar Sephadex G-25 column as described above and was eluted with the same type of buffer. Maximum radioactivity was obtained in fraction number 13 i.e. in this case the substance with radioactivity was more retained on the column.

[2] = tested on: Fibroblast growth factor (FGF); assay: Interaction between FGF and radioactive IP3, co-elution on Sephadex G-25 / Heparin-Sepharose columns; type: binding; conditions: co-elution from Sephadex G-25, 50 mM Hepes pH 7.4
Method: as §1
This type of column fractionate substances according to molecular weight. Substances with molecular weight exceeding 1500 will not penetrate the microspheres of the column and will accordingly elute quite soon after being loaded to the column, while smaller molecules will appear later as they partly or totally penetrate the microspheres depending on the molecular weight.
The incubate was loaded on the column and was uluted with 50 mM Hepes in fractions of 0.4 ml each.
as §2, with “interaction” for “interaction,”, “UV absorbance” for “UV-absorbance”

[3] = molecular target: T1, Fibroblast growth factor acidic (aFGF) (Homo sapiens, UniProt P05230); assay: aFGF/Matrigel-induced swelling (tumor-like matrix) in nude mice; type: in vivo, BALBc nude mice; conditions: osmotic minipump, 0.4 g/ml, 14 days
T1 construct: purchased Sigma (USA)
T1 sequence (P05230 whole entry, species assumed): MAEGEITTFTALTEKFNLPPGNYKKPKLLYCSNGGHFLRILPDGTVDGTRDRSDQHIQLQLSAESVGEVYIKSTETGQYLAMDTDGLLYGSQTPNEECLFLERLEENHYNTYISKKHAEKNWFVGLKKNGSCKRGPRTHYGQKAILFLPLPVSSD
Method: Fibroblast growth factor acidic (aFGF) from Sigma (USA), was diluted in a buffer, RPMI-1640 (Life Technologies, UK). 25 μg of aFGF was diluted in 125 μl buffer and 50 μl was transferred to a small Eppendorf tube. 150 μl of Matrigel® basement membrane matrix from Becton and Dickinson (UK) was added to the tube and the content was thoroughly mixed for 60 minutes. All equipment was sterilized by irradiation or autoclaving (115° C. in 10 minutes) before use and all procedures were performed at 7° C. The mixture was kept in an icebath before the animal experiment.
Ten female, specific pathogen free BALBc nude mice with a weight of 18-22 g were maintained in autoclaved type III makrolon cages with filter tops in horizontal air flow cabinets in a barrier unit equipped with HEPA filters. Autoclaved bedding, irradiated feed and sterile filtered water was used. Temperature and humidity was kept constant at 22±2° C., 65±5 RH.
When fibroblast growth factor (FGF) and Matrigel® is mixed and inovulated to nude mice, developments of a swelling process ressembling tumor begin to develop.
A portion of the mixture of Matrigel® and a FGF was inoculated subcutaneously by a 23 G needle in the right flank of the mice. Two days before all mice were surgically prepared with osmotic minipumps (Alzet, model 2002).
To another group of five mice saline was administered as a control group.

[4] = molecular target: bovine brain clathrin assembly protein-2 (AP-2); assay: Binding to clathrin assembly protein-2, competition with tritiated inositoltetraphosphate; conditions: competition with 10 nM tritiated inositoltetraphosphate, on ice, ten minutes
Method: The binding assay was done in a total volume of 100 μl buffer containing […] Na HEPES pH 7.1, […], […], 5 mg/ml IgG, 10 nM tritiated inositoltetraphosphate and 1.46 μg of AP-2. […] Incubation was carried out on ice for a period of ten minutes and then the protein was co-precipitated with IgG using 5% (w/w) polyethylene glycol and pelleted by centrifugation at […] for 10 minutes. The supernatants were aspirated, the pellets were wasted with 0.2 ml water and resuspended in 0.2 ml water and transferred to scintillation vials. 5.0 ml of cyto scint fluid was added to each vial and the radioactivity was measured.

[5] = Binding constants to the polyamine spermine; type: physicochemical; conditions: 1:1:5 complex; 0.1 M N-tetramethylbromide at 25° C.
Method: The interaction between a polyamine, spermine and different triphosphorylated compounds were investigated in order to determin the binding constants. Spermine is a basic polyamine comprising domains of similar basicity to basic domains in growth factors. Spermine and the different phosphorylated compounds forms different complexes and the 1:1:5 complex was used as the complex for determination of binding constants.
The following binding constants, log Ks was determined in 0.1 M N-tetramethylbromide at 25° C.: […]

Wish tumour cells = assay: Wish tumour cell-induced bone tumours on the calvaria of nude mice; type: in vivo; parameters: key: +: small and non-severe tumours; ++++: large and severe tumours; conditions: 120 mg/kg/day osmotic minipump for 14 days; individual animals
Method: The injection of a specific cell-line Wish tumour cells, induces proliferation of osteoblasts on the calvaria of nude mice leading to bone tumours.
Wish cells (American Type Culture Collection^R, ATCC (R) F-12784 25 CCL WITH×01166) were used for inocculation. Cells were grown on MEM supplemented with 15% FCS, 2% glutamine and streptomycin-penicillin/garamycin. Cells were grown as a monolayer and trypsinised and split in the ratio 1:3 to 1:4. All together 360 million cells were harvested and suspended in 7 ml for a final concentration of approximately 10 million cells per 0.2 ml.
The osmotic pumps with IP3 and saline respectively were implanted on the same day as the inocculation of Wish-cells were performed.
A 27 gauge needle on a 1 ml syringe was used for the injections of Wish-cells. The injection was done under the skin of the calvaria scratching the periosteum.
At day 13 all animals were given an intraperiotoneal injection of demeclocycline (Sigma Chemicals Co. St Louis). All animals were investigated regarding the occurrence of and size of tumours. The size of tumours were measured according to a scale from
+ which represents small and non-severe tumours to
++++ which represents large and severe tumours.

O=P(O)(O)OC1C(O)C(O)C(O)C(OP(=O)(O)O)C1OP(=O)(O)O [IP3, D-myo-inositol-1,2,6-trisphosphate]
interaction between NGF and IP3 [1]: strong interaction
interaction between FGF and IP3 [2]: strong interaction
volume of the formed matrix ([3]; Day 1): 150 mm^3
volume of the formed matrix ([3]; Day 4): 125 mm^3
volume of the formed matrix ([3]; Day 5): 90 mm^3
volume of the formed matrix ([3]; Day 6): 50 mm^3
volume of the formed matrix ([3]; Day 7): 50 mm^3
volume of the formed matrix ([3]; Day 8): 70 mm^3
volume of the formed matrix ([3]; Day 9): 70 mm^3
IC50 [4]: 600 ± 100 nM
log Ks [5]: 5.16
Severeness of tumours (Wish tumour cells): ++++
